Legend:
Format in all cases: in vivo
[1] = system: Triticum aestivum variety “Monopol”; assay: Post-emergence test, selectivity; conditions: 2–4 weeks after treatment, rating 0-100 (100=death), Table 6
Method: (§1) These acetone solutions are diluted with water and the resulting formulations applied at dosage levels equivalent of about 0.030 to 0.240 kg per hectare of test compound per pot. After spraying the plants are placed an greenhouse benches and are cared for in the usual manner, commensurate with conventional greenhouse practices. From 2 to 4 weeks after treatment, the seedling plants are examined and rated according to the rating system provided above. A rating 0 indicates growth as untreated control, a rating 100 indicates death.

[2] = system: Triticum aestivum variety “Kanzler”; assay: Post-emergence test, selectivity; conditions: 2–4 weeks after treatment, rating 0-100 (100=death), Table 6
Method: as §1

[3] = system: Polygonum convolvulus; assay: Post-emergence test, weed control; conditions: 2–4 weeks after treatment, rating 0-100 (100=death), Table 5
Method: as §1

[4] = system: Matricaria inodora; assay: Post-emergence test, weed control; conditions: 2–4 weeks after treatment, rating 0-100 (100=death), Table 5
Method: as §1

[5] = system: Veronica persica; assay: Pre-emergence test, weed control; conditions: 3 weeks after treatment, rating 0-100 (100=death), Table 1
Summary of the method: (§2)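 Scores from 0 (growth like untreated control) to 100 (death) were assigned by eye three weeks post-spray, with 10 units approximating a 10% change in effect. Treatment was applied to freshly sown loam at 15 to 240 g active material per hectare.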

[6] = system: Poa annua; assay: Pre-emergence test, weed control; conditions: 3 weeks after treatment, rating 0-100 (100=death), Table 1
Summary of the method: as §2

[7] = system: Apera spica-venti; assay: Pre-emergence test, weed control; conditions: 3 weeks after treatment, rating 0-100 (100=death), Table 1
Summary of the method: as §2

[8] = system: Galium aparine; assay: Pre-emergence test, weed control; conditions: 3 weeks after treatment, rating 0-100 (100=death), Table 1
Summary of the method: as §2

[9] = system: Lolium perenne; assay: Pre-emergence test, weed control; conditions: 3 weeks after treatment, rating 0-100 (100=death), Table 1
Summary of the method: as §2

[10] = system: Alopecurus myosuroides; assay: Pre-emergence test, weed control; conditions: 3 weeks after treatment, rating 0-100 (100=death), Table 1
Summary of the method: as §2

[11] = system: Polygonum convolvulus; assay: Pre-emergence test, weed control; conditions: 3 weeks after treatment, rating 0-100 (100=death), Table 1
Summary of the method: as §2

[12] = system: Stellaria media; assay: Pre-emergence test, weed control; conditions: 3 weeks after treatment, rating 0-100 (100=death), Table 1
Summary of the method: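 Herbicidal effect was scored visually on a 0–100 scale (100 = death, 0 = untreated-like) three weeks after treatment. Soil was horticultural loam sprayed just after sowing with aqueous-diluted acetone/0.4% TRITON X-155 formulations at 15–240 g a.i./ha (900 L/ha).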

[13] = system: Matricaria inodora; assay: Pre-emergence test, weed control; conditions: 3 weeks after treatment, rating 0-100 (100=death), Table 1
Summary of the method: as §2

[14] = system: Lamium purpureum; assay: Pre-emergence test, weed control; conditions: 3 weeks after treatment, rating 0-100 (100=death), Table 1
Summary of the method: as §2

[15] = system: Setaria viridis; assay: Pre-emergence test, weed control; conditions: 3 weeks after treatment, rating 0-100 (100=death), Table 1
Summary of the method: as §2

[16] = system: Triticum aestivum variety “Monopol”; assay: Pre-emergence test, selectivity; conditions: 3 weeks after treatment, rating 0-100 (100=death), Table 2
Summary of the method: as §2

[17] = system: HORVW; assay: Pre-emergence test, selectivity; conditions: 3 weeks after treatment, rating 0-100 (100=death), Table 2
Summary of the method: as §2

[18] = system: Hordeum vulgare variety “Mammut”; assay: Pre-emergence test, selectivity; conditions: 3 weeks after treatment, rating 0-100 (100=death), Table 2
Summary of the method: as §2

[19] = system: Triticum aestivum variety “Kanzler”; assay: Pre-emergence test, selectivity; conditions: 3 weeks after treatment, rating 0-100 (100=death), Table 2
Summary of the method: as §2

## CCc1cc(Oc2cccc(C(F)(F)F)c2)nc(-c2ccc(C(F)(F)F)cc2)n1 [REF-3]
[1]; 0.03 kg/ha
  TRZAWM rating (Selectivity): 10
[1]; 0.06 kg/ha
  TRZAWM rating (Selectivity): 15
[1]; 0.12 kg/ha
  TRZAWM rating (Selectivity): 22
[1]; 0.24 kg/ha
  TRZAWM rating (Selectivity): 30
[2]; 0.03 kg/ha
  TRZAWK rating (Selectivity): 12
[2]; 0.06 kg/ha
  TRZAWK rating (Selectivity): 15
[2]; 0.12 kg/ha
  TRZAWK rating (Selectivity): 25
[2]; 0.24 kg/ha
  TRZAWK rating (Selectivity): 35
[3]; 0.060 kg/ha
  POLCO weed control rating: 35
[3]; 0.120 kg/ha
  POLCO weed control rating: 55
[3]; 0.240 kg/ha
  POLCO weed control rating: 80
[4]; 0.030 kg/ha
  MATIN weed control rating: 65
[4]; 0.060 kg/ha
  MATIN weed control rating: 80
[4]; 0.120 kg/ha
  MATIN weed control rating: 85
[4]; 0.240 kg/ha
  MATIN weed control rating: 85
[5]; 0.015 kg/ha
  VERPE weed control rating: 100
[5]; 0.030 kg/ha
  VERPE weed control rating: 100
[5]; 0.060 kg/ha
  VERPE weed control rating: 100
[5]; 0.120 kg/ha
  VERPE weed control rating: 100
[5]; 0.240 kg/ha
  VERPE weed control rating: 100
[6]; 0.015 kg/ha
  POAAN weed control rating: 100
[6]; 0.030 kg/ha
  POAAN weed control rating: 100
[6]; 0.060 kg/ha
  POAAN weed control rating: 100
[6]; 0.120 kg/ha
  POAAN weed control rating: 100
[6]; 0.240 kg/ha
  POAAN weed control rating: 100
[7]; 0.015 kg/ha
  APESV weed control rating: 100
[7]; 0.030 kg/ha
  APESV weed control rating: 100
[7]; 0.060 kg/ha
  APESV weed control rating: 100
[7]; 0.120 kg/ha
  APESV weed control rating: 100
[7]; 0.240 kg/ha
  APESV weed control rating: 100
[8]; 0.060 kg/ha
  GALAP weed control rating: 50
[8]; 0.120 kg/ha
  GALAP weed control rating: 85
[8]; 0.240 kg/ha
  GALAP weed control rating: 97
[9]; 0.015 kg/ha
  LOLPE weed control rating: 90
[9]; 0.030 kg/ha
  LOLPE weed control rating: 98
[9]; 0.060 kg/ha
  LOLPE weed control rating: 99
[9]; 0.120 kg/ha
  LOLPE weed control rating: 99
[9]; 0.240 kg/ha
  LOLPE weed control rating: 100
[10]; 0.015 kg/ha
  ALOMY weed control rating: 55
[10]; 0.030 kg/ha
  ALOMY weed control rating: 98
[10]; 0.060 kg/ha
  ALOMY weed control rating: 98
[10]; 0.120 kg/ha
  ALOMY weed control rating: 100
[10]; 0.240 kg/ha
  ALOMY weed control rating: 100
[11]; 0.015 kg/ha
  POLCO weed control rating: 25
[11]; 0.030 kg/ha
  POLCO weed control rating: 70
[11]; 0.060 kg/ha
  POLCO weed control rating: 80
[11]; 0.120 kg/ha
  POLCO weed control rating: 100
[11]; 0.240 kg/ha
  POLCO weed control rating: 100
[12]; 0.015 kg/ha
  STEME weed control rating: 98
[12]; 0.030 kg/ha
  STEME weed control rating: 100
[12]; 0.060 kg/ha
  STEME weed control rating: 100
[12]; 0.120 kg/ha
  STEME weed control rating: 100
[12]; 0.240 kg/ha
  STEME weed control rating: 100
[13]; 0.015 kg/ha
  MATIN weed control rating: 99
[13]; 0.030 kg/ha
  MATIN weed control rating: 99
[13]; 0.060 kg/ha
  MATIN weed control rating: 99
[13]; 0.120 kg/ha
  MATIN weed control rating: 100
[13]; 0.240 kg/ha
  MATIN weed control rating: 100
[14]; 0.015 kg/ha
  LAMPU weed control rating: 100
[14]; 0.030 kg/ha
  LAMPU weed control rating: 100
[14]; 0.060 kg/ha
  LAMPU weed control rating: 100
[14]; 0.120 kg/ha
  LAMPU weed control rating: 100
[14]; 0.240 kg/ha
  LAMPU weed control rating: 100
[15]; 0.015 kg/ha
  SETVI weed control rating: 100
[15]; 0.030 kg/ha
  SETVI weed control rating: 100
[15]; 0.060 kg/ha
  SETVI weed control rating: 100
[15]; 0.120 kg/ha
  SETVI weed control rating: 100
[15]; 0.240 kg/ha
  SETVI weed control rating: 100
[16]; 0.015 kg/ha
  TRZAWM rating (Selectivity): 3
[16]; 0.030 kg/ha
  TRZAWM rating (Selectivity): 8
[16]; 0.060 kg/ha
  TRZAWM rating (Selectivity): 10
[16]; 0.120 kg/ha
  TRZAWM rating (Selectivity): 35
[16]; 0.240 kg/ha
  TRZAWM rating (Selectivity): 45
[17]; 0.015 kg/ha
  HORVW rating (Selectivity): 15
[17]; 0.030 kg/ha
  HORVW rating (Selectivity): 45
[17]; 0.060 kg/ha
  HORVW rating (Selectivity): 45
[17]; 0.120 kg/ha
  HORVW rating (Selectivity): 60
[17]; 0.240 kg/ha
  HORVW rating (Selectivity): 60
[18]; 0.015 kg/ha
  HORVWM rating (Selectivity): 20
[18]; 0.030 kg/ha
  HORVWM rating (Selectivity): 30
[18]; 0.060 kg/ha
  HORVWM rating (Selectivity): 40
[18]; 0.120 kg/ha
  HORVWM rating (Selectivity): 55
[18]; 0.240 kg/ha
  HORVWM rating (Selectivity): 55
[19]; 0.015 kg/ha
  TRZAWK rating (Selectivity): 5
[19]; 0.030 kg/ha
  TRZAWK rating (Selectivity): 8
[19]; 0.060 kg/ha
  TRZAWK rating (Selectivity): 8
[19]; 0.120 kg/ha
  TRZAWK rating (Selectivity): 25
[19]; 0.240 kg/ha
  TRZAWK rating (Selectivity): 40

— patent publication US7008905B2, “Method of combating undesired plant growth on cereals” (BASF Aktiengesellschaft, priority 2000, dated 2006)
